Laboratory results: patent US20020103398A1, “2-Amino-2-alky-4 heptenoic and heptynoic acid derivatives useful as nitric oxide synthase inhibitors” (priority 2000, published 2002)
Counter-ions that a name gives are not always drawn.

Tests used:
Format in all cases: biochemical
[1] = biological target: T1, Human inducible NOS (hiNOS) (Homo sapiens, UniProt P35228); assay: Citrulline assay for nitric oxide synthase (hiNOS); settings: recombinant enzyme from Sf9 cells; 30 μM L-arginine; 37° C., 15 minutes
T1 construct: made in house; host or cells: Sf9 insect cells, baculovirus vector
Text: (§1) Nitric oxide synthase (NOS) activity can be measured by monitoring the conversion of L-[2,3-^3H]-arginine to L-[2,3-^3H]-citrulline (Bredt and Snyder, Proc. Natl. Acad. Sci. U.S.A., 87, 682-685, 1990 and Moore et al, J. Med. Chem. 39, 669-672, 1996). Human inducible NOS (hiNOS), human endothelial constitutive NOS (hecNOS) and human neuronal constitutive NOS (hncNOS) are each cloned from RNA extracted from human tissue. The cDNA for human inducible NOS (hiNOS) is isolated from a λcDNA library made from RNA extracted from a colon sample from a patient with ulcerative colitis. The cDNA for human endothelial constitutive NOS (hecNOS) is isolated from a λcDNA library made from RNA extracted from human umbilical vein endothelial cells (HUVEC) and the cDNA for human neuronal constitutive NOS (hncNOS) is isolated from a λcDNA library made from RNA extracted from human cerebellum obtained from a cadaver. […] After mixing the resin is allowed to settle and L-[2,3-^3H]-Citrulline formation is determined by counting aliquots of the supernatant with a liquid scintillation counter. IC50 values can be determined by testing each compound at several concentrations. […]

[2] = biological target: T2, human endothelial constitutive NOS (hecNOS) (Homo sapiens, UniProt P29474); assay: Citrulline assay for nitric oxide synthase (hecNOS); settings: recombinant enzyme from Sf9 cells; 30 μM L-arginine; calmodulin 40-100 nM; 37° C., 15 minutes
T2 construct: made in house; host or cells: Sf9 insect cells, baculovirus vector
Text: as §1

[3] = biological target: T3, human neuronal constitutive NOS (hncNOS) (Homo sapiens, UniProt P29475); assay: Citrulline assay for nitric oxide synthase (hncNOS); settings: recombinant enzyme from Sf9 cells; 30 μM L-arginine; calmodulin 40-100 nM; 37° C., 15 minutes
T3 construct: made in house; host or cells: Sf9 insect cells, baculovirus vector
Text: as §1

T1 sequence (P35228 whole entry): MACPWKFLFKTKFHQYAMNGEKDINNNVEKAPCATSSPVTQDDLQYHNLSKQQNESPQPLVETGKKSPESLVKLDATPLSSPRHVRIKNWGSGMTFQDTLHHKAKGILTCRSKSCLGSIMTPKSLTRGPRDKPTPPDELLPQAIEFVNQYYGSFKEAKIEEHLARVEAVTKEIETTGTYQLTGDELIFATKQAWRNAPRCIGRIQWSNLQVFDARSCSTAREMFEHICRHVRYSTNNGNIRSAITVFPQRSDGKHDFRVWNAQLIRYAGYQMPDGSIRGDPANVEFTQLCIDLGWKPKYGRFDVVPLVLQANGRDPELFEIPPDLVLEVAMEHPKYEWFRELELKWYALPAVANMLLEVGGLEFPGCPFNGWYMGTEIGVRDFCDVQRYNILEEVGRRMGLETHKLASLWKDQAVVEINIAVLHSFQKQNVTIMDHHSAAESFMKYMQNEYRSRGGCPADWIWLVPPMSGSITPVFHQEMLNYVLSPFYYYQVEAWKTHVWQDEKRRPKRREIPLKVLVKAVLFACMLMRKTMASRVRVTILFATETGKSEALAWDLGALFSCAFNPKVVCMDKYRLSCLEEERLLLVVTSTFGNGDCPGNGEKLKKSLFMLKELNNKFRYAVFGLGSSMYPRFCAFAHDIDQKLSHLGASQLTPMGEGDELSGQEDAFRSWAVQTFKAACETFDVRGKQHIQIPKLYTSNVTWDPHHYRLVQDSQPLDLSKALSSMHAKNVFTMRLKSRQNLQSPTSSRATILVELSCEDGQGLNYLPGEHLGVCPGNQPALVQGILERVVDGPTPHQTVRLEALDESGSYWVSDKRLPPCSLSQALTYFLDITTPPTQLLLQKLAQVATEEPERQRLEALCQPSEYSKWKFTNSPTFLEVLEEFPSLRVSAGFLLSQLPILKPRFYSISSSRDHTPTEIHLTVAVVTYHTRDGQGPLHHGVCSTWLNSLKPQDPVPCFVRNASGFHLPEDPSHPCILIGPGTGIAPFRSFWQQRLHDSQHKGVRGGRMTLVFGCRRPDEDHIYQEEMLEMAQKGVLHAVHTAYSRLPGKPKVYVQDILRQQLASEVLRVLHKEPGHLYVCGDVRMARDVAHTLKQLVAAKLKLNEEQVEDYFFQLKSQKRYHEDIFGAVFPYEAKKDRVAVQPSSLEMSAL
T3 sequence (P29475 whole entry): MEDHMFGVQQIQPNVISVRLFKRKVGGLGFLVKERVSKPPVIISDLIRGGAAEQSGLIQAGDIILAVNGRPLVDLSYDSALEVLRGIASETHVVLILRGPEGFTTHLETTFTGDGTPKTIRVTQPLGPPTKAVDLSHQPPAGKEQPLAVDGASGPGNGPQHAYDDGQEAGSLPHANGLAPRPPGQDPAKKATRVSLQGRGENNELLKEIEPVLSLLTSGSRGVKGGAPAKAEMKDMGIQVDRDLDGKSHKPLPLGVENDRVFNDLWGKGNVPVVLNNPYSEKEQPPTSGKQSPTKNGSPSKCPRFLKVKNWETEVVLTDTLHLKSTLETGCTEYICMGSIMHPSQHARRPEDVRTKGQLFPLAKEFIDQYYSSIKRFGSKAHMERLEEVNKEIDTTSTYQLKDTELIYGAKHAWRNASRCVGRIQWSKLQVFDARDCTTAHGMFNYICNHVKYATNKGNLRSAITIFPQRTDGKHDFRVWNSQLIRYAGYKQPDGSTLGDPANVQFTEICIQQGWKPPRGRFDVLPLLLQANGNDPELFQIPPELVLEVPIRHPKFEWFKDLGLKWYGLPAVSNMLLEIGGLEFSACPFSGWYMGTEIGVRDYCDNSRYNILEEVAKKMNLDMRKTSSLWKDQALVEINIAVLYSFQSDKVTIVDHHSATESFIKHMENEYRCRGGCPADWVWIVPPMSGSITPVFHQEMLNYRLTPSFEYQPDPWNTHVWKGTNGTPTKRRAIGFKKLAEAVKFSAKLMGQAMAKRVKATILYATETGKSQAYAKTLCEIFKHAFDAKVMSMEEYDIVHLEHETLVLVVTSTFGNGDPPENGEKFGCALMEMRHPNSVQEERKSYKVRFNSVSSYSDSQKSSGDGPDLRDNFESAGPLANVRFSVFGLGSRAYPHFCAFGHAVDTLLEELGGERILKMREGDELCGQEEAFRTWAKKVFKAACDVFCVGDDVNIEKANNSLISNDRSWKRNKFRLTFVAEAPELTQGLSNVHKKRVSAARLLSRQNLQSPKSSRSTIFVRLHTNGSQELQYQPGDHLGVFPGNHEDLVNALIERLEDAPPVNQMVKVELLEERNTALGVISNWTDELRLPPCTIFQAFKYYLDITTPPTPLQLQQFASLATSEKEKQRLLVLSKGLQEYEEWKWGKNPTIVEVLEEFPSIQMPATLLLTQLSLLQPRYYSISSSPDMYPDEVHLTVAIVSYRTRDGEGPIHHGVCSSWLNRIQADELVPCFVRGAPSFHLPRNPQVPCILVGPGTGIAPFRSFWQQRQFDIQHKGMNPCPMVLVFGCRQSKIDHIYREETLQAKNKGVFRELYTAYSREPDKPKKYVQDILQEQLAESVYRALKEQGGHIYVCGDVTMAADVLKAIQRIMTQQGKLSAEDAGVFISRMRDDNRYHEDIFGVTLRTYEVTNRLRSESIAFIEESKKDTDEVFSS
T2 sequence (P29474 2-1203): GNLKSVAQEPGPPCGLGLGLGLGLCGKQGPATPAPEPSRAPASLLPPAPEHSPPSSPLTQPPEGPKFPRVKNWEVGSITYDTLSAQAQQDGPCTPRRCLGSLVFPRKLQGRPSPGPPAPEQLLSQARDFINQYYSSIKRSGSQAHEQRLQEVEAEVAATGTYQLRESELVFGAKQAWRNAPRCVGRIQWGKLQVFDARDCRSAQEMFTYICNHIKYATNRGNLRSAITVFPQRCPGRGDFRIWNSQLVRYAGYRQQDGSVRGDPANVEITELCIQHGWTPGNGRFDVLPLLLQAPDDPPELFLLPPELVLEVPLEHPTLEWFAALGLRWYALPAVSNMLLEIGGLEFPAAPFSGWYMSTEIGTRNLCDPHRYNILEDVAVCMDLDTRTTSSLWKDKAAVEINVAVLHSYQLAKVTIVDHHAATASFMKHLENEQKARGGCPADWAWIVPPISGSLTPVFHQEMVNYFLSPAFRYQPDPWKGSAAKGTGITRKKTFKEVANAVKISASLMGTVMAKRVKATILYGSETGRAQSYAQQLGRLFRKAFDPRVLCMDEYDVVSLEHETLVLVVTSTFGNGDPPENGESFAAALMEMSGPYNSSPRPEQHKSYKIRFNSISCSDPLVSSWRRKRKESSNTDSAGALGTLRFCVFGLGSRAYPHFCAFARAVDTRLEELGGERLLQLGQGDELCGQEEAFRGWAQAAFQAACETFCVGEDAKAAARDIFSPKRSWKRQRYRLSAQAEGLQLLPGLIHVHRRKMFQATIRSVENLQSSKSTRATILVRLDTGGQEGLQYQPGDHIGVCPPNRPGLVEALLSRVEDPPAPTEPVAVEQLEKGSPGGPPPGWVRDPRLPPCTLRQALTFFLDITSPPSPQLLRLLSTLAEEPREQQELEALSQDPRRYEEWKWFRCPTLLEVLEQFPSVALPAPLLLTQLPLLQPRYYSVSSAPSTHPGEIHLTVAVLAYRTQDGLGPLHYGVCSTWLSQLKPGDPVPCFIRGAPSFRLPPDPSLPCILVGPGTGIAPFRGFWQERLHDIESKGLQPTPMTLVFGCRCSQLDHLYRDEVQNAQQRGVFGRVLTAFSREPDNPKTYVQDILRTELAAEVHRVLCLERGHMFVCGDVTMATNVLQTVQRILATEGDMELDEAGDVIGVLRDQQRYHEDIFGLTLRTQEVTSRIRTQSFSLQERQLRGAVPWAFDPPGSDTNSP

With `CC(=N)NCC/C=C\CC(C)(N)C(=O)O` (racemic) [Example 1, (2R/S,4Z)-2-amino-2-methyl-7-[(1-iminoethyl)amino]-4-heptenoic Acid, Dihydrochloride] the IC50 [1] was 34 µM, the IC50 [2] was 386 µM and the IC50 [3] was 122 µM.
